≈ marks a conversion by molar mass, not a printed value.
Experiments:
plant pathogens = assay: Colony diameter on agar plates, all tested fungi (conclusion); assay type: cell-based; settings: conclusion of Example 7b
Method: In particular, the antimicrobial activity of bis(p-chlorophenyl) disulfide (AM2), bis(p-fluorophenyl) disulfide (AM3), bis(p-chlorophenyl) thiosulfonate (AM6) and diisopropyl thiosulfonate (AM8) of the invention is tested against pathogenic fungi selected from Pythium aphanidermatum, Phytophthora cinnamiomi, Fusarium oxysporum, Sclerotinia sclerotiorum, Rhizoctonia solani and Botrytis cinerea.
Experimental design. The effects of mentioned compounds on growth of the fungi were tested on agar plates with various dilutions of the compounds. The fungus was inoculated in the middle of the agar plate. At various time intervals the diameter of the colony was measured.
The fungi were pregrown on appropriate agar media, for example potato dextrose agar or malt extract agar at 24 C. After 3, 7, 10 and 14 days of incubation at 24 C, the diameter of the fungal colonies were measured on the agar plates. Since the agar plates have a diameter of 8 cm, this was the maximum colony size.
Agar media were prepared with various dilutions of bis(p-chlorophenyl) disulfide (AM2), bis(p-fluorophenyl) disulfide (AM3), bis(p-chlorophenyl) thiosulfonate (AM6) and diisopropyl thiosulfonate (AM8).
The test compounds were added to the agar media when the liquid agar medium was still hand-warm to prevent heat-dependent decomposition of the compounds. 50-fold concentrated stock solutions of the antimicrobial compounds of each dilution were prepared in 50% tween-80 and 50% DMSO (in this way the concentrations DMSO and tween 80 were the same in all agar plates). The following concentrations of the antimicrobial compounds were used for each strain in agar plates: 1.0 mM, 0.50 mM, 0.25 mM, 0.125 mM and 0.063 mM in the corresponding medium as indicated in table 12. Each concentration was tested in 4-fold in 8 cm diameter petridishes and each dish contained 11 ml agar medium.
Hereafter, the plates were inoculated in the middle of the dish. Incubation took place at 24 C. Colony diameters were measured at t=3, 7, 10 and 14 days after inoculation. Since the diameter of the petri dishes are 8 cm this diameter was the maximal diameter that was measured.

[1] = tested on: Micrococcus luteus ATCC 4698; assay: MIC assay; assay type: cell-based; settings: Example 2a, n = 3, ATCC 4698; for MIC50 / MIC90: Micrococcus luteus, ATCC4698
Method: The exact weighed amount was noted and the volume of solvent to reach a 80 mM dilution calculated. Half of the volume was added first, by adding Tween 80 and let stand for 5 minutes. In a second step, the other half of the volume DMSO was added and resuspended to help the dilution process. The closed tube was inverted 5-10 times and then vortexed very thoroughly for at least 30 seconds. If after this procedure crystals were still visible, the tube was placed in a shaker at 37° C. at 150 rpm for at least 30 minutes (it is indicated if the dissolution period was longer than 2 h). […] In case of Bis(4-Chlorophenyl) thiosulfonate, a lower concentrated stock solution of 2 mM needed to be prepared. For that, the required amount of compound was weighed in and 2% v/v Tween80 and 2% v/v DMSO of the end volume of the stock solution was added to the substance. This mix was heated in a water bath set to 40° C. and occasionally shaken. When the whole amount of the substance reached dissolution, the volume was filled up with growth medium until the end volume. This 2 mM stock solution of Bis(4-Chlorophenyl) thiosulfonate was used in the MIC plate and diluted two-fold, resulting in a testing range of Bis(4-Chlorophenyl) thiosulfonate from 1 mM to 0.002 mM.
The microorganisms as indicated in Table 4 were used to inoculate a tryptic soy agar (TSA) plate and incubated overnight at 37° C. After incubation 3-5 well-isolated colonies with the same morphology were selected from the TSA plate and resuspended in 2 mL 0.9% saline solution with 3-6 glass beads and vortexed. The optical density at 600 nm (OD600) of the bacterial suspension was measured with a spectrophotometer (Evolution™ 201/220 UV-Visible Spectrophotometer, Thermo Fisher Scientific) and diluted to an OD600 of 0.0008, which resembles 10^6 CFU/mL.
The MIC assay was performed in a flat-bottom 96-microtiter plate. 50 μL of MHB-II was added into columns 2-11, and 100 μL to column 12 for sterility control. 100 μL of the 8 mM test compound solution (method 1) was added to column 1. A two-fold dilution series of the solution in MHB-II was achieved by resuspending 50 μL of the 8 mM solution from column 1 to column 2. This step was repeated until column 10. The respective concentration of Tween 80 and DMSO in column 1 was 2.5%, which is two-fold diluted throughout the plate. 50 μL of the bacterial suspension was added to column 1-11. The microtiter plates were sealed with adhesive polyethylene film for sealing microplates (Diversified Biotech) and incubated for 24 h at 37° C. After incubation the OD was measured at 600 nm with the Varioskan (Thermo Fisher Scientific). The minimal concentration which causes reduction of final OD600 of the bacterial culture by 50% (MIC50) and by 90% (MIC90) was calculated after normalization of the obtained OD values to the growth control in column 11. This assay was repeated three times in three independent experiments.

MIC50 Micrococcus luteus (+) [1] | MIC90 Micrococcus luteus (+) [1] | SMILES | growth of plant pathogens (plant pathogens) | MIC50 [1] | MIC90 [1]
 |  | Clc1ccc(SSc2ccc(Cl)cc2)cc1 [Bis (4-chlorophenyl) disulfide, Bis(4-chlorophenyl) disulfide] | clearly inhibited | 50 µM (≈ 14.4 µg/mL) | 250 µM (≈ 71.8 µg/mL)
2000 µM (≈ 541 µg/mL) | 3330 µM (≈ 900 µg/mL) | [O-][S+](Sc1ccc(F)cc1)c1ccc(F)cc1 (centres unmarked) [Bis (4-fluorophenyl) thiosulfinate, Bis(4-fluorophenyl) thiosulfinate] |  |  | 
 |  | Fc1ccc(SSc2ccc(F)cc2)cc1 [Bis (4-fluorophenyl) disulfide, Bis(4-fluorophenyl) disulfide] | clearly inhibited | 750 µM (≈ 191 µg/mL) | 2000 µM (≈ 509 µg/mL)
 |  | CC(C)SS(=O)(=O)C(C)C [Di-isopropyl thiosulfonate] | clearly inhibited |  | 
1500 µM | 2000 µM | O=S(=O)(Sc1ccc(F)cc1)c1ccc(F)cc1 [Bis (4-fluorophenyl) thiosulfonate, Bis(4-fluorophenyl) thiosulfonate] |  |  | 

SMILES | MIC50 Micrococcus luteus (+) [1] | MIC90 Micrococcus luteus (+) [1] | growth of plant pathogens (plant pathogens) | MIC50 [1] | MIC90 [1]
O=S(=O)(Sc1ccc(Cl)cc1)c1ccc(Cl)cc1 [Bis (4-chlorophenyl) thiosulfonate, Bis(4-chlorophenyl) thiosulfonate] | 210 µM | 750 µM | clearly inhibited |  | 
